Values quoted from earlier work as cited in paper PMC10591878 (ACS infectious diseases, 2023).

Experiments:
[1] = system: P. falciparum Dd2-B2 parasites; settings: for MIR: Dd2-B2; for resistant parasites in 3 wells of 3 × 10^7 / resistant parasites in 4 wells of 2.5 × 10^6: Dd2-B2, 3 × EC50
[2] = system: Dd2-B2 Pf20S WT and mutant lines; settings: β6 N151Y vs Dd2-B2 parental line

Row | SMILES | MIR [1] | resistant parasites in 3 wells of 3 × 10^7 [1] | resistant parasites in 4 wells of 2.5 × 10^6 [1] | EC50 fold shift against selection compound [2] [×] | number of parasites with which resistance was obtained [1]
1 | O=C(NC1CCCC1)[C@@H]1CCCCOc2cccc(c2)C[C@H](N2CCCC2=O)C(=O)N[C@@H](CCN2CCOCC2)C(=O)N1 [TDI-8304] | 3×10^7 | 3/3 wells | 0/4 wells | 1.7 | –
2 | CC(C)C[C@@H](/C=C/S(C)(=O)=O)NC(=O)[C@H](CC(C)C)NC(=O)[C@H](Cc1c[nH]c2ccccc12)NC(=O)CN1CCOCC1 [WLL] | >1 × 10^9 | none | 0/4 wells | – | 2 × 10^9 parasites
